Source: US20120003661A1, “METHODS AND DEVICES FOR THE SELECTIVE DETECTION OF MICROORGANISMS” (C3 JIAN, INC., priority 2010, published 2012)
“Also recorded” adds a separate entry of the source. Where two headings read alike, the source gives them in different places.

Test system: bacteria, fungi, and/or yeasts
Format: binding
[1] = microorganism(s) the targeting peptide binds, as listed in Table 2
[2] = microorganism(s) that the targeting peptide binds, as listed in Table 2
[3] = microorganism(s) listed as target(s) of the targeting peptide, wrapped target lists given cell by cell

Row | Substance | Target(s) [1] | Target(s) [3] | also measured
1 | 1T-243 (SENIARFAAAFENEQVVSYARWFRRSWRGSGSSSRF) | A. naeslundii, P. gingivalis, S. epidermidis,; also recorded: S. gordonii, S. mitis,; also recorded: S. mutans, S. oralis, S. salivarious,; also recorded: S. sanguinis | – | –
2 | PF-C086 (ELFFTILSDCNELFLLHLLQQPLFYIKKGK) | – | – | Target(s) [2]: A. naeslundii, F. nucleatum, P. gingivalis,; also recorded: S. mutans, T. denticola
3 | 1T-303 (LDYENMDCKKRIRI) | – | A. naeslundii, F. nucleatum, P. gingivalis,; also recorded: S. gordonii, S. mitis,; also recorded: S. mutans, S. oralis, S. salivarious,; also recorded: S. sanguinis | –
4 | PF-W (FIDSFIRSF) | – | – | Target(s) [2]: S. mutans
5 | 1T-11 (RISE) | S. mutans, S. epidermidis, P. aeruginosa | – | –
6 | 1T-19 (PGAFRNPQMPRG) | S. aureus, S. epidermidis, P. aeruginosa | – | –
7 | 1T-258 (TINIDDKVLDYLKKINSKAITIDLIGCAS) | – | A. naeslundii, F. nucleatum, P. gingivalis,; also recorded: T. denticola, S. mitis,; also recorded: S. mutans, S. oralis | –
8 | 1T-78 (FFKTIFVLILGALGVAAGLYIEKNYIDK) | S. pneumoniae | – | –
9 | 1T-28 (VSRDEAMEFIDREWTTLQPAGKSHA) | P. aeruginosa | – | –
10 | 1T-285 (FFPYYLADFYKQLKFLNEYQTKNKDKVVEFK) | – | A. naeslundii, F. nucleatum, P. gingivalis,; also recorded: S. gordonii, S. mitis,; also recorded: S. mutans, S. oralis, S. salivarious,; also recorded: S. sanguinis | –
11 | 1T-111 (GRLSRREEDPATSIILLRGAYRMAVF) | A. naeslundii, F. nucleatum, P. gingivalis,; also recorded: S. epidermidis, S. gordonii,; also recorded: S. mitis, S. mutans, S. oralis,; also recorded: S. salivarious, S. sanguinis | – | –
12 | PF-C084 (FFSVIFLFGLNYLICNSPLFNILR) | – | – | Target(s) [2]: A. naeslundii, F. nucleatum, P. gingivalis,; also recorded: S. mutans
13 | 1T-35 (EICLTLVFPIRGSYSEAAKFPVPIHIVEDGTVELPK) | P. aeruginosa | – | –
14 | 1T-130 (QKIIDMSKFLFSLILFIMIVVIYIGKSIGGYSAIVSSIMLELDTVLYNKKIFFIYK) | A. naeslundii, F. nucleatum, P. gingivalis,; also recorded: S. epidermidis, S. gordonii,; also recorded: S. mitis, S. mutans, S. oralis,; also recorded: S. salivarious, S. sanguinis | – | –
15 | 1T-265 (GMFENLLMINFQIMNDLKIEIVVKDRICAV) | – | A. naeslundii, F. nucleatum, P. gingivalis,; also recorded: S. epidermidis, S. gordonii,; also recorded: S. mitis, S. mutans, S. oralis,; also recorded: S. salivarious, S. sanguinis | –
16 | 1T-41 (KRGSKIVIAIAVVLIVLAGVWVW) | S. mutans, S. aureus, S. epidermidis,; also recorded: C. jeikeium, C. striatum,; also recorded: P. aeruginosa | – | –
17 | 1T-154 (YFSFLEIVGMARR) | P. gingivalis | – | –
18 | 1T-230 (EFLEKFKVLKQPRKANNISKNRVAMIFLTIHKSRGFLSSPY) | A. naeslundii, F. nucleatum, P. gingivalis,; also recorded: S. epidermidis, S. gordonii,; also recorded: S. mitis, S. mutans, S. oralis,; also recorded: S. salivarious, S. sanguinis | – | –
19 | 1T-120 (DVRDRVDLAGADLCAAHATR) | A. naeslundii, F. nucleatum, P. gingivalis,; also recorded: S. epidermidis, S. gordonii,; also recorded: S. mitis, S. mutans, S. oralis,; also recorded: S. salivarious, S. sanguinis | – | –
20 | 1T-122 (GAIPDPVTHRVDWEEDHQTRPSR) | S. mitis | – | –
21 | 1T-15 (DVILRVEAQ) | S. mutans | yeast and hyphal forms | –
22 | PF-162 (GIRRLHSVENLNREISHRMAGLR) | – | S. epidermidis, MRSA | –
23 | PF-S026 (TELKYNGEEYLLLTQRDILAVIEK) | – | – | Target(s) [2]: S. epidermidis, MRSA, C. jeikeium

Row | Substance | Target(s) [1] | Target(s) [3] | also measured
24 | 1T-27 (ALFVSLEQFLVVVAKSVFALCHSGTLS) | S. mutans, S. aureus, S. epidermidis,; also recorded: C. jeikeium, C. xerosis,; also recorded: C. striatum, P. aeruginosa | – | –
25 | PF-C137 (QRMYWFKRGFETGDFSAGDTFAELK) | – | – | Target(s) [2]: A. naeslundii, F. nucleatum, P. gingivalis,; also recorded: S. mutans
26 | PF-140 (FHRRVIRASEWALTTRSFSTPLRSAAR) | – | S. epidermidis, M. luteus, P. mirabilis,; also recorded: E. coli, P. aeruginosa,; also recorded: C. albicans, MRSA, S. pneumoniae,; also recorded: E. faecalis, C. jeikeium,; also recorded: C. jejuni, M. smegmatis | –
27 | PF-C050 (QGLARPVLRRIPL) | – | – | Target(s) [2]: A. naeslundii, S. mutans
28 | PF-071 (HCVIGNVVDIANLLKRRAVYRDIADVIKMR) | – | S. epidermidis, E. coli, P. aeruginosa,; also recorded: C. albicans, MRSA,; also recorded: S. pneumoniae, E. faecalis, C. jeikeium,; also recorded: C. jejuni | –
29 | PF-143 (LSPRPIIVSRRSRADNNNDWSR) | – | S. epidermidis, MRSA, C. jeikeium | –
30 | 1T-281 (KYEKLTKENLFIRNSGNMCVFIYFLFFG) | – | A. naeslundii, F. nucleatum, P. gingivalis,; also recorded: S. epidermidis, S. gordonii,; also recorded: S. mitis, S. mutans, S. oralis,; also recorded: S. salivarious, S. sanguinis | –
31 | 1T-185 (HYHFLLEFGFHKGDYLE) | A. naeslundii, F. nucleatum, P. gingivalis,; also recorded: T. denticola, S. gordonii,; also recorded: S. mitis, S. mutans, S. oralis,; also recorded: S. salivarious, S. sanguinis | – | –
32 | 1T-280 (TNNKNKVIIKAIKFKNKDFINLDLFIYRR) | – | A. naeslundii, F. nucleatum, P. gingivalis,; also recorded: T. denticola, S. gordonii,; also recorded: S. mitis, S. mutans, S. oralis,; also recorded: S. salivarious, S. sanguinis | –
33 | 1T-48 (KLQVHHGRATHTLLLQPPLCAPGTIR) | S. aureus, S. epidermidis, C. jeikeium,; also recorded: C. xerosis, C. striatum,; also recorded: P. aeruginosa | – | –
34 | 1T-7 (SQRIIEPVKSPQPYPGFSVS) | M. xanthus | – | –
35 | PF-C045 (FREGMGWPLSNEGSPTAPLPKHRNQV) | – | – | Target(s) [2]: A. naeslundii, T. denticola
36 | 1T-183 (PLRSFVAEKAEHAFRVVRIADFDFGHS) | A. naeslundii, F. nucleatum, P. gingivalis,; also recorded: S. epidermidis, S. gordonii,; also recorded: S. mitis, S. mutans, S. oralis,; also recorded: S. salivarious, S. sanguinis | – | –
37 | PF-131 (RRAAARTKGNRR) | – | S. epidermidis, E. coli, MRSA, C. jeikeium | –
38 | PF-171 (TQVTLCRTW) | – | S. epidermidis, E. coli, P. aeruginosa,; also recorded: S. pneumoniae | –
39 | 1T-299 (SMLTSFLRSKNTRSLKMYKDVHF) | – | A. naeslundii, F. nucleatum, S. epidermidis,; also recorded: S. gordonii, S. mitis,; also recorded: S. mutans, S. oralis, S. salivarious,; also recorded: S. sanguinis | –
40 | 1T-283 (LCTKLEDKQRGRIPAELFIISPIKILERNDAL) | – | A. naeslundii, F. nucleatum, P. gingivalis,; also recorded: T. denticola, S. epidermidis,; also recorded: S. gordonii, S. mitis,; also recorded: S. mutans, S. oralis, S. salivarious,; also recorded: S. sanguinis | –
41 | PF-003 (MNNWIKVAQISVTVINEVIDIMKEKQNGGK) | – | S. epidermidis, M. luteus, P. mirabilis,; also recorded: C. albicans, MRSA, C. jeikeium | –
42 | 1T-218 (KLIFAALGLVFLLIGLRDSRSK) | F. nucleatum, S. sanguinis | – | –
43 | 1T-129 (YDKYIKYLSIQPPFIVYFI) | A. naeslundii, P. gingivalis, S. epidermidis,; also recorded: S. gordonii, S. mitis,; also recorded: S. mutans, S. oralis, S. salivarious,; also recorded: S. sanguinis | – | –
44 | PF-S007 (VVAGVVLLTALAVGSKRKEKKQIKEIQRLLAATR) | – | – | Target(s) [2]: S. epidermidis, MRSA
45 | 1T-128 (SGSAIRMLEIATKMLKR) | A. naeslundii, P. gingivalis, S. epidermidis,; also recorded: S. gordonii, S. mitis,; also recorded: S. mutans, S. oralis, S. salivarious,; also recorded: S. sanguinis | – | –
46 | 1T-200 (MRFKRFDRDYALSGDNVFEVLTASCDVIERNLSYREMCGLMQ) | A. naeslundii, F. nucleatum, S. epidermidis,; also recorded: S. gordonii, S. mitis,; also recorded: S. mutans, S. oralis, S. salivarious,; also recorded: S. sanguinis | – | –
